# In paper PMC6767236, “Selective Cannabinoid 2 Receptor Agonists as Potential Therapeutic Drugs for the Treatment of Endotoxin-Induced Uveitis” (Molecules, 2019):
# Read-outs that look alike come from different tables or passages of the source. Marks after values point to notes of the source that are not given here.
# Key:
# mouse CB2R = mouse CB2R (Mus musculus, UniProt P47936); assay: cAMP assay, mouse CB2R (mouse spleen homogenate); assay type: biochemical
# Protocol: The effect of ligands on the forskolin-stimulated accumulation of cAMP was determined using the LANCE ULTRA cAMP kit as per the manufacturer’s instruction (Perkin-Elmer Life Sciences, Boston, MA, USA).
# For mouse CB2R cAMP assays, mouse spleen was resuspended in 50 mM of Tris-HCl (pH 7.4), then homogenized with a Potter homogenizer and centrifuged at 1000× g for 10 min. The supernatants were incubated for 30 min with 1-methyl-3-isobutylxanthine (IBMX), then forskolin was added in the presence or absence of ligands. The supernatants were incubated for 30 min in ATP Regeneration Buffer (50 mM HEPES, pH 7.4, 10 mM phosphocreatine, 10 units/mL creatine phosphokinase, 10 μM GTP, 200 μM ATP, 10 mM MgCl2, 250 μM IBMX), and the reaction was stopped by adding lysis buffer. Time-resolved fluorescence was measured with a Victor V Multilabel counter (Perkin-Elmer Life Sciences, Boston, MA, USA).
# CYP2C9 = CYP2C9 (Homo sapiens, UniProt P11712); assay: Cytochrome P450 inhibition assay, CYP2C9; assay type: in vitro ADME
# CYP2C9, sequence (P11712 whole entry): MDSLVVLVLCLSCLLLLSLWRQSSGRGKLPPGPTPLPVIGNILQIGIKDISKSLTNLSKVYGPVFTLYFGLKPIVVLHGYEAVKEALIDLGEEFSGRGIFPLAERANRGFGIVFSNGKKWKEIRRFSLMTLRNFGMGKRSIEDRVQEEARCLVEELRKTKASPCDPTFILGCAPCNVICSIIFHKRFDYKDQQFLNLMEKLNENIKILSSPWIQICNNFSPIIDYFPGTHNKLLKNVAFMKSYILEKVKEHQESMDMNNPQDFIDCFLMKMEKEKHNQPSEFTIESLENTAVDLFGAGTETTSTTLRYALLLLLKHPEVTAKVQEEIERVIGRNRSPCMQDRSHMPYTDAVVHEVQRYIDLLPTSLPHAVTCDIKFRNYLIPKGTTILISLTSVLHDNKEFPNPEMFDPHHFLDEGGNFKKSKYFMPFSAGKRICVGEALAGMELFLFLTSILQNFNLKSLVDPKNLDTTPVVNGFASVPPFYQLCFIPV
# [1] = Protocol: The GSH adduct formation test aims for the identification of molecules which bear the risk of forming reactive metabolites that might trigger drug-induced liver injury and drug-induced hypersensitivity reactions in patients. The compounds are incubated with liver microsomes to assess reactive metabolite formation. Glutathione is added as a nucleophile to convert eventually formed reactive species into a stable conjugate that can be analyzed by mass spectrometry. Details on the assay have been reported in Brink et al. (2014). […]
# human CB1R [2] = target: T1, human CB1R (Homo sapiens, UniProt P21554)
# T1 construct: host or cells: CHO
# T1 sequence (P21554 whole entry): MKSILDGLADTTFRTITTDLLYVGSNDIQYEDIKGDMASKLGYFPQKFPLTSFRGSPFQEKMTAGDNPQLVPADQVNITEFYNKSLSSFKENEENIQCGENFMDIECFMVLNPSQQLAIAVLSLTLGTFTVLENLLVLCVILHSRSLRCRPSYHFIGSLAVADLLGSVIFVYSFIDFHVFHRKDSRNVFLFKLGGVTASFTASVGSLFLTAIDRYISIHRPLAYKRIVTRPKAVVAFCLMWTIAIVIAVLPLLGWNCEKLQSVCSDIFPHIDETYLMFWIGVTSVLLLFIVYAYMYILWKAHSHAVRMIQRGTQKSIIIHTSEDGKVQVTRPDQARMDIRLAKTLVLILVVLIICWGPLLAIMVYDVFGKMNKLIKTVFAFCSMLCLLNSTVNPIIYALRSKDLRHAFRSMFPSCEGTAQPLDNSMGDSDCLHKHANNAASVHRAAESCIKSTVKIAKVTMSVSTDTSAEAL
# human CB1R [3] = target: T1, human CB1R; remark: listed apart in the source
# human CB2R [4] = target: T2, human CB2R (Homo sapiens, UniProt P34972); conditions: cited from earlier work; for EC50: read-out: hCB2R: beta arrestin EC50
# T2 construct: bgal (beta-galactosidase fragment of the PathHunter system, named only in the cell line's name); host or cells: CHO-K1 (CHOK1hCB2_bgal)
# T2 sequence (P34972 whole entry, the tested form may be a part): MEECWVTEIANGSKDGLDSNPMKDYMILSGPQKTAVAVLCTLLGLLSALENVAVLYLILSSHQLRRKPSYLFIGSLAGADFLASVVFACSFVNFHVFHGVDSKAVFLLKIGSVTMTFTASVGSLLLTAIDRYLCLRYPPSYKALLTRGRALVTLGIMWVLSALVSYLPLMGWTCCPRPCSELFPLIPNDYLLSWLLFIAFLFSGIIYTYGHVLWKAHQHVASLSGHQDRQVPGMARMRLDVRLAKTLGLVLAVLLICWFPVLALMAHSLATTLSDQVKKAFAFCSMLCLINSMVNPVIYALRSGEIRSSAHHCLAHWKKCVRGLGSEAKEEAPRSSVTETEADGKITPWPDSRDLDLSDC
# [5] = human hepatocytes; * previously published; cited from earlier work
# [6] = mouse, * previously published, cited from earlier work; for T1/2 / Tmax: oral, HU308 5 mg/kg, others 3 mg/kg; for F: oral 3 mg/kg
# human CB2R [7] = target: T2, human CB2R; assay: PathHunter β-arrestin recruitment assay, hCB2R; assay type: cell-based; conditions: for EC50: read-out: hCB2R: beta arrestin EC50
# Protocol: Assays were carried out using the PathHunter hCB1_bgal, hCB2_bgal, or mCB2_bgal CHOK1 β-arrestin recruitment assay kit (DiscoveRx, Fremont, CA, USA) as previously described. A total of 5000 cells per well were seeded in 384-well plates (Perkin Elmer, MA, USA) containing 20 μL cell culture medium and incubated for 16–18 h at 37 °C and 5% CO2. Cells were stimulated with 10 μM of each agonist or 11 increasing concentrations and incubated for 90 min at 37 °C and 5% CO2. […] The cells were incubated for 90 min at 37 °C and 5% CO2. Compounds in DMSO stock solutions were added using a HP D300 Digital Dispenser (Tecan, Mannedorf, Switzerland). The final concentration of organic solvent per assay point was ≤ 0.1%. The PathHunter Detection mixture was used, according to the manufacturer’s protocol, to determine the β-galactosidase enzyme activity. Detection mixture, 12 μL per well, was added and the plate was incubated for 1 h in the dark at room temperature. Chemiluminescence, indicated as relative light unit, was measured on an EnVision multilabel plate reader (Perkin Elmer, MA, USA).
# [8] = Chemical stability (aqueous stability assay ASTA); assay type: physicochemical; conditions: aqueous buffer, 37 °C
# Protocol: Chemical Stability (= Aqueous Stability Assay ASTA)
# ASTA is a fully automated assay to determine the 2 h stability of a molecule in aqueous conditions, over the pH range 1–10. Five different pH values are used and the solutions are heated at 37 °C. A compound is classified unstable if, after 2 h, less than 90% of the initial concentration can be found. Samples are first prepared on incubation plates and shaken initially for 10 min at 37 °C.
# Solutions are then transferred to a filter plate (Millipore MSGVN2250, pore size 0.22 µm) and filtrated into V-bottom plates (from ABGene, AB-0800) that are heat-sealed prior to HPLC analysis. The procedure is performed a second time. However, the incubation time at 37 °C for the second plate is increased by 2 h. Samples are taken at time point 0 and 2 h and analyzed by HPLC. […]
# [9] = * previously published; cited from earlier work
# [10] = set-up: method as in earlier work; conditions: mouse, i.v., 0.5-1 mg/kg; * previously published; cited from earlier work
# human P-gp = conditions: cited from earlier work; for P-glycoprotein-Mediated Efflux Extraction Ratio human: human P-gp, * previously published
# mouse P-gp = conditions: cited from earlier work; for P-glycoprotein-Mediated Efflux Extraction Ratio mouse: mouse P-gp, * previously published; for P-gp substrate, mouse: underlying data previously published
# [11] = * previously published; cited from earlier work; remark: listed apart in the source
# [12] = human and mouse liver microsomes; underlying data previously published; cited from earlier work
# [13] = underlying data previously published
# [14] = read-out: mouse CB2R: cAMP EC50
# [15] = pH 1, 2 h, read-out: Chemical Stability in Aqueous Buffer at pH 1 (% remaining after 2 h at 37 °C)
# [16] = pH 4, 2 h, read-out: Chemical Stability in Aqueous Buffer at pH 4 (% remaining after 2 h at 37 °C)
# [17] = pH 6.5, 2 h, read-out: Chemical Stability in Aqueous Buffer at pH 6.5 (% remaining after 2 h at 37 °C)
# [18] = pH 8, 2 h, read-out: Chemical Stability in Aqueous Buffer at pH 8 (% remaining after 2 h at 37 °C)
# [19] = pH 10, 2 h, read-out: Chemical Stability in Aqueous Buffer at pH 10 (% remaining after 2 h at 37 °C)
# [20] = [3H]-CP55940 displacement; * previously published; read-out: hCB1R: Ki; cited from earlier work
# [21] = * previously published; read-out: hCB1R: cAMP EC50; cited from earlier work
# mouse CB2R, sequence (P47936 whole entry): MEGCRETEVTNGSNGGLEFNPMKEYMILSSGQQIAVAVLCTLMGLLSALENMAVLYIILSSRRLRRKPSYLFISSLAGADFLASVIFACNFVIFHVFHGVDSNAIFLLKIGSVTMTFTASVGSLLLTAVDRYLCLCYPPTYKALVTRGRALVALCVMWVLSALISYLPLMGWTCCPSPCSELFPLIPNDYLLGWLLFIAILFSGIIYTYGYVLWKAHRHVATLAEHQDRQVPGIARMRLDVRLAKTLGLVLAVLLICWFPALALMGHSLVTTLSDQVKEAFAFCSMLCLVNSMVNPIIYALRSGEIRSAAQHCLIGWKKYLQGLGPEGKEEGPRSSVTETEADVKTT
Compound,mouse CB2R: cAMP efficacy (mouse CB2R),GSH Adduct Formation in Human Liver Microsomes [1],Hepatocyte Clearance human [5],T1/2 [6],Tmax [6],hCB1R beta arrestin EC50/hCB2R beta arrestin EC50 (human CB2R [7]),"remaining at 2 h [8, 15]","remaining at 2 h [8, 16]","remaining at 2 h [8, 17]","remaining at 2 h [8, 18]","remaining at 2 h [8, 19]",IC50 (CYP2C9; read-out: IC50 CYP2C9),Ki (human CB1R [2]; [20]),EC50 (human CB1R [3]; [21]),Plasma Protein Binding: FREE Fraction human [9],AUCINF D [10],Clearance (CL) [10],T1/2 [10],Vss [10],P-glycoprotein-Mediated Efflux Extraction Ratio human (human P-gp),other results
"CCCCCCC(C)(C)c1cc(OC)c([C@H]2C=C(CO)[C@H]3C[C@@H]2C3(C)C)c(OC)c1 [HU308, {(1S,4S,5S)-4-[2,6-Dimethoxy-4-(2-methyloctan-2-yl)phenyl]-6,6-dimethylbicyclo[3.1.1]hept-2-en-2-yl}methanol, reference compound]",99%,no adduct,8.3 μL/min/Mio cells,3.3 h,0.5 h,,,,,,,,,,,,,,,,EC50 (mouse CB2R): 0.006 µM; IC50 (CYP2C9): > 50 µM; Ki (human CB1R [2]; read-out: hCB1R: Ki; [3H]-CP55940 displacement; * previously published; cited from earlier work): 4.6 µM; EC50 (human CB1R [3]; read-out: hCB1R: cAMP EC50; * previously published; cited from earlier work): > 10 µM; hCB2R: beta arrestin efficacy (human CB2R [4]; * previously published): 107%; functional behaviour in hCB2R β-arrestin assay (human CB2R [4]; [13]): full agonist
"CCCCCCC(C)(C)c1cc(OC)c(C2=C[C@H]3CC[C@]2(CO)C3(C)C)c(OC)c1 [HU910, {(1S,4R)-2-[2,6-dimethoxy-4-(2-methyloctan-2-yl)phenyl]-7,7-dimethylbicyclo[2.2.1]hept-2-en-1-yl}methanol, reference compound]",99%,no adduct,9.2 μL/min/Mio cells,5.2 h,1 h,>275,94%,93%,91%,94%,93%,> 50 µM,3.73 µM,> 10 µM,1.8%,6060 ng·kg·h/mL/mg,0.168 L/h/kg,7.4 h,0.26 L/kg,2.2,"EC50 (mouse CB2R; [14]): 0.003 µM; functional behaviour in hCB2R β-arrestin assay (human CB2R [4]): full agonist; hCB2R: beta arrestin efficacy (human CB2R [4]): 109, 81 * %; EC50 (human CB2R [4]): 0.109 µM; P-glycoprotein-Mediated Efflux Extraction Ratio mouse (mouse P-gp): 3.0"
"CNC(=O)[C@@H](NC(=O)c1cc(OCC2(C)COC2)c(C2CC2)cn1)C(C)(C)C [RO6851228, 5-Cyclopropyl-N-[(2S)-3,3-dimethyl-1-(methylamino)-1-oxobutan-2-yl]-4-[(3-methyloxetan-3-yl)methoxy]pyridine-2-carboxamide]",,no adduct,12 μL/min/Mio cells,1.17 h,0.25 h,,93%,100%,99%,100%,100%,> 50 µM,6.49 µM,,9.6%,226 ng·kg·h/mL/mg,4.43 L/h/kg,1.08 h,3.1 L/kg,6.5,"hCB2R cAMP EC50/mouse CB2R cAMP EC50 ratio (mouse CB2R): 7; functional behaviour in hCB2R β-arrestin assay (human CB2R [7]): inverse agonist; hCB2R: beta arrestin efficacy (human CB2R [7]): −18%; EC50 (human CB2R [7]): 0.003 µM; LogD (at pH 7.4) [11]: 3.21; clearance in human as well as mouse microsomes (class in words) [12]: low to medium clearances; P-glycoprotein-Mediated Efflux Extraction Ratio mouse (mouse P-gp): 25.1; P-gp substrate, mouse (mouse P-gp): strong P-gp substrate; F [6]: 31%"
"Cc1nc([C@](C)(CC2CC2)NC(=O)c2cc(OCC(F)(F)F)c(C3CC3)cn2)no1 [RO6871085, 5-Cyclopropyl-N-[(2S)-1-cyclopropyl-2-(5-methyl-1,2,4-oxadiazol-3-yl)propan-2-yl]-4-(2,2,2-trifluoroethoxy)pyridine-2-carboxamide]",,no adduct,17 μL/min/Mio cells,8.42 h,0.5 h,>545,99%,99%,97%,99%,99%,8 µM,3.38 µM,1.45 µM,1.0%,1412 ng·kg·h/mL/mg,0.708 L/h/kg,4.15 h,4.0 L/kg,1.4,"functional behaviour in hCB2R β-arrestin assay (human CB2R [7]): partial agonist; hCB2R: beta arrestin efficacy (human CB2R [7]): 51%; EC50 (human CB2R [7]): 0.055 µM; hCB1R: cAMP efficacy (human CB1R [3]; second number of the cell; relative to 1 µM CP55940; * previously published; cited from earlier work): 38%; LogD (at pH 7.4) [11]: 3.94; clearance in human as well as mouse microsomes (class in words) [12]: low to medium clearances; P-gp substrate, human (human P-gp; [13]): not a P-gp substrate; P-glycoprotein-Mediated Efflux Extraction Ratio mouse (mouse P-gp): 1.7; P-gp substrate, mouse (mouse P-gp): not a P-gp substrate; F [6]: 68%"
"CC(C)(C)c1nc(N2CC[C@H](O)C2)c2nnn(Cc3nnnn3C3CC3)c2n1 [RO6871304, (3S)-1-{5-tert-butyl-3-[(1-cyclopropyl-1H-tetrazol-5-yl)methyl]-3H-[1,2, 3]triazolo[4,5-d]pyrimidin-7-yl}pyrrolidin-3-ol]",101%,no adduct,15 μL/min/Mio cells,,,>1429,100%,100%,100%,99%,100%,16 µM,> 10 µM,> 10 µM,,,2.19 L/h/kg,,0.95 L/kg,,EC50 (mouse CB2R; [14]): 0.0005 µM; hCB2R: beta arrestin efficacy (human CB2R [4]; * previously published): 119%; EC50 (human CB2R [4]; * previously published): 0.021 µM; functional behaviour in hCB2R β-arrestin assay (human CB2R [4]; [13]): full agonist; LogD (at pH 7.4) [11]: 2.78; clearance in human as well as mouse microsomes (class in words) [12]: low to medium clearances
